Measurements: patent publication US9440957B2, “Compounds and compositions for modulating EGFR Activity” (Novartis AG, priority 2012, dated 2016)
Where two headings read alike, the source gives them in different places.

Tests used:
HCC827 (Del E746-A750) = HCC827 (Del E746-A750) (Homo sapiens, UniProt P00533, DEL746-750); assay: EGFR target modulation in HCC827 cell line (phospho-EGFR Y1173 ELISA); type: cell-based
How it was run: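 3 h compound exposure of cells in 10% FBS/RPMI, 37 °C; lysis on ice 20 min; lysate captured overnight at 4 °C on anti-EGFR-coated plates; anti-rabbit-HRP, chemiluminescence.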

[1] = target: human EGFR L858R/T790M (NIH/3T3 cells) (Homo sapiens, UniProt P00533, L858R/T790M); assay: EGFR target modulation in engineered NIH/3T3 cell lines (phospho-EGFR Y1068 AlphaLISA), EGFR L858R/T790M; type: cell-based; conditions: engineered NIH/3T3 cells, read-out: NIH3T3 IC50 (μM) EGFR (L858R/T790M)
How it was run: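 Read-out is phospho-Y1068 AlphaLISA on cell lysates, with anti-total EGFR at 1 nM final equilibrated 1 h at room temperature. Cells were dosed 3 h with a 12-point 1:3 series starting from a 10 μM stock. Only the WT line received 50 ng/ml EGF for 5 min.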

EGFR(L858R/T790M) = target: T1, EGFR(L858R/T790M) (Homo sapiens, UniProt P00533, L858R/T790M); assay: EGFR biochemical assay (HTRF), IC50 determinations
T1 construct: purchased from Carna (GST-a.a. 669-1210)
How it was run: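 HTRF kinase reaction with biotin-TK peptide at room temperature, quenched with EDTA at 60 min and detected with PT66K/SAXL after 1 h. Without preincubation, enzyme starts the reaction with compound, ATP and peptide present. With preincubation, compound, enzyme and peptide sit at room temperature for a set time before ATP is added.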

HEKn (EGFR WT) = HEKn (EGFR WT) (Homo sapiens, UniProt P00533); assay: EGFR target modulation in HEKn (EGFR-WT) cell line (phospho-EGFR Y1173 ELISA); type: cell-based; conditions: value outside parentheses
How it was run: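 Primary neonatal human keratinocytes (EGFR WT) were exposed to serially diluted compounds for 3 h, then lysed on ice. Phospho-EGFR Y1173 was measured by chemiluminescent sandwich ELISA using anti-EGFR capture.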

[2] = EGFR (L858R/T790M) with 90 min pre-incubation, read-out: IC50 (μM) Column B
[3] = EGFR (L858R/T790M) with no pre-incubation, read-out: IC50 (μM) Column A

Sequence of HCC827 (Del E746-A750) (P00533 with tags, fused parts or gaps DEL746-750): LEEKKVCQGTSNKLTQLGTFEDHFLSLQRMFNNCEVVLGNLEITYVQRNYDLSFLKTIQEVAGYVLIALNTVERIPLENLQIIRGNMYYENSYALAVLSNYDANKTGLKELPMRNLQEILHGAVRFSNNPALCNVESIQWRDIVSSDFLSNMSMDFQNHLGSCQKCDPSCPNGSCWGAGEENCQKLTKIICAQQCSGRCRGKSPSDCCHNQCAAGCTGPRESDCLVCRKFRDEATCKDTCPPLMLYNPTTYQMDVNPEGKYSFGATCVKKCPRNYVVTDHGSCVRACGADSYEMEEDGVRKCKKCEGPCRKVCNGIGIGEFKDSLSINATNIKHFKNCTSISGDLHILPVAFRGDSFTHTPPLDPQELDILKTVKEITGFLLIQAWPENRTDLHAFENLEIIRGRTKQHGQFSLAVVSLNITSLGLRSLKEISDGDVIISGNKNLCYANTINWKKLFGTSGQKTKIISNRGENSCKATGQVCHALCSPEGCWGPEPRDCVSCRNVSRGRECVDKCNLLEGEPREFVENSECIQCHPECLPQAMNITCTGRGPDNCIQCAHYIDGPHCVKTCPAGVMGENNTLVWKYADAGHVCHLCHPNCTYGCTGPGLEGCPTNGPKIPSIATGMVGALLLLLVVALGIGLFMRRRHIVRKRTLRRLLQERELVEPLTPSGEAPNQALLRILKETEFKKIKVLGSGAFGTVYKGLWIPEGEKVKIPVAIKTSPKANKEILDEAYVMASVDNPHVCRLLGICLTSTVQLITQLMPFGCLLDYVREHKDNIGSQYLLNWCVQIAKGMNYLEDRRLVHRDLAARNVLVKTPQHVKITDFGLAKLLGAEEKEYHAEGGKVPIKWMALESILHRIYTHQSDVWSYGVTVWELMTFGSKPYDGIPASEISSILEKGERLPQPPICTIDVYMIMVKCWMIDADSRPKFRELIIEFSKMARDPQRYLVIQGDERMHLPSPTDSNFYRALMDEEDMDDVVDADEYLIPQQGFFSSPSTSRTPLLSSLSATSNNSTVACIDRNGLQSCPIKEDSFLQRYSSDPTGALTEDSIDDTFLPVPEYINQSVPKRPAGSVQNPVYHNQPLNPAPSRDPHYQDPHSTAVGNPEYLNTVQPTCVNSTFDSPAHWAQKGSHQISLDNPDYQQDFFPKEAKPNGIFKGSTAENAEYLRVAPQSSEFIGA
T1 sequence (P00533 669-1210 T790M/L858R): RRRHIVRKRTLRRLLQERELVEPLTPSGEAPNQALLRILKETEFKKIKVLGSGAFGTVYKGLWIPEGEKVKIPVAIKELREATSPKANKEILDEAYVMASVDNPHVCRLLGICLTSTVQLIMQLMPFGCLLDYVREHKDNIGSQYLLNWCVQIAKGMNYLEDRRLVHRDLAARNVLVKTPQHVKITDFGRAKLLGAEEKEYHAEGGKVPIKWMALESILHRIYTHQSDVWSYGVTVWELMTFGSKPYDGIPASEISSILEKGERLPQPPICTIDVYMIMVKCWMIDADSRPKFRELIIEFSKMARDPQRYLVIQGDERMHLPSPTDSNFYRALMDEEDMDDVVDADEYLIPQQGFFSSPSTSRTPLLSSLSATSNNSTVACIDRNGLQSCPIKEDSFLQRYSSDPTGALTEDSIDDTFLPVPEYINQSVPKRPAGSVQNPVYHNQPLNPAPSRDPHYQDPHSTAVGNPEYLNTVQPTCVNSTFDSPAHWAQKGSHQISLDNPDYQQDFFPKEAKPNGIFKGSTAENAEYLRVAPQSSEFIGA
Sequence of human EGFR L858R/T790M (NIH/3T3 cells) (P00533 25-1210 T790M/L858R): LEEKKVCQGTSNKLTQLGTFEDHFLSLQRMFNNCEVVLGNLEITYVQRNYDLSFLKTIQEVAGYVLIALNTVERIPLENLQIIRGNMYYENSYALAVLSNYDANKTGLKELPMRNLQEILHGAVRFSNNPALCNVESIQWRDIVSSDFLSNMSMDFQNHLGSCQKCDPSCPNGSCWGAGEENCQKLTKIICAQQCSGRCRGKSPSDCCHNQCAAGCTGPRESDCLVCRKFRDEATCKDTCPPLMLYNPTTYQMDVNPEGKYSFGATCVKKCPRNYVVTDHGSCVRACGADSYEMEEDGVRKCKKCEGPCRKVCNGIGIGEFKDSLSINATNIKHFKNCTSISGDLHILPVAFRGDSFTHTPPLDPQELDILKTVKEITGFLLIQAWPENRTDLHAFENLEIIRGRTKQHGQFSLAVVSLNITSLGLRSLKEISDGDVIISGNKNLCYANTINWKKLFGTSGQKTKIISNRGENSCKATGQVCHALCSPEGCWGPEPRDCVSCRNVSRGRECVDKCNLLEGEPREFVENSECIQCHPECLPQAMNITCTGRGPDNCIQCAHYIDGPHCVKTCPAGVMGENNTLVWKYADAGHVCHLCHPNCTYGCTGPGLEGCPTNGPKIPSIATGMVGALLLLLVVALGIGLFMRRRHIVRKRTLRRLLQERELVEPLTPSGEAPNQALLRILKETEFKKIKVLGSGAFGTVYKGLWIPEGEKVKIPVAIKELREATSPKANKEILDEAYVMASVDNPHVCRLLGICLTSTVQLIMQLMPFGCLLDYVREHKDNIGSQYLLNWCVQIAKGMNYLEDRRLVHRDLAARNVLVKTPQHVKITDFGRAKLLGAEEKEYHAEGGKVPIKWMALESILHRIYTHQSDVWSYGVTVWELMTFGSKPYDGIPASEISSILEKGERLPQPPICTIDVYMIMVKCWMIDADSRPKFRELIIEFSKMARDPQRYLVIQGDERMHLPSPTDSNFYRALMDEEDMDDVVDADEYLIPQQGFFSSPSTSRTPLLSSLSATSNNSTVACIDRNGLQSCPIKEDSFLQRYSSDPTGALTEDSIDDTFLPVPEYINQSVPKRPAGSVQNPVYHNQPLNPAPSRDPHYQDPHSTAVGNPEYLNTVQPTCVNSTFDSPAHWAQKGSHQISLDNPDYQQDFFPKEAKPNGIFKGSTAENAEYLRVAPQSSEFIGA
Sequence of HEKn (EGFR WT) (P00533 25-1210): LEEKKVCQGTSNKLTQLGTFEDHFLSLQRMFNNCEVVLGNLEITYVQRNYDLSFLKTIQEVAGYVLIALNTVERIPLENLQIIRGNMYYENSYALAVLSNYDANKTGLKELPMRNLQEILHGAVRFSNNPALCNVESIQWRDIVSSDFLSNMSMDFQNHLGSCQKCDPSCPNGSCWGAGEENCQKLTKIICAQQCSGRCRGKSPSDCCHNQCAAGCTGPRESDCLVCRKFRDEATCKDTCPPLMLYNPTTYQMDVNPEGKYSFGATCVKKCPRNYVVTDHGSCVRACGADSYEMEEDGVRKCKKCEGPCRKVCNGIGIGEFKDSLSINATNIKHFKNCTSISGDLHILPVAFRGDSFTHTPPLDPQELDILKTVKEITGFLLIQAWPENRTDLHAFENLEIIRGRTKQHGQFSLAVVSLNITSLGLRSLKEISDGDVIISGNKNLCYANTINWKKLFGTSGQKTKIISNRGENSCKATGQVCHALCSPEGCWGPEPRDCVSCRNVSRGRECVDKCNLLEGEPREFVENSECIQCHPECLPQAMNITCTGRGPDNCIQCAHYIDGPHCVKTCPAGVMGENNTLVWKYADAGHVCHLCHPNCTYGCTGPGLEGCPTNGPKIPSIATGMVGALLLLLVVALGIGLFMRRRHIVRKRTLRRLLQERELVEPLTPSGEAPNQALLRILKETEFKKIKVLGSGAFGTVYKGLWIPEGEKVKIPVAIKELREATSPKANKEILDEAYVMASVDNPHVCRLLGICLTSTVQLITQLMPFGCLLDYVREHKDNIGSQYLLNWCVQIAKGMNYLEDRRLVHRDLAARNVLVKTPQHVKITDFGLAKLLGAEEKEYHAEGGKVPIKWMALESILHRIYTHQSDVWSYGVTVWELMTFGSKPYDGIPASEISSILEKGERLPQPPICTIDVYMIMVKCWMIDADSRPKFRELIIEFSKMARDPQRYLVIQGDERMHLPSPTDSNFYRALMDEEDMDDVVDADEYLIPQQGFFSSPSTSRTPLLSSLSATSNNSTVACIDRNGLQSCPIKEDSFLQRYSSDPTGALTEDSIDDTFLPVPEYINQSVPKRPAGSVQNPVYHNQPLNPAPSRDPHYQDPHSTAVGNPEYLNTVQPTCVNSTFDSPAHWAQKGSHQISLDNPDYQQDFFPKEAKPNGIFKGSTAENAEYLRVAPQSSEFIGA

SMILES	IC50 (HCC827 (Del E746-A750))	IC50 [1]	IC50 (EGFR(L858R/T790M); [2])	IC50 (EGFR(L858R/T790M); [3])	IC50 (HEKn (EGFR WT))
C=CC(=O)N1CCCC[C@@H](n2c(NC(=O)c3ccnc(C)c3)nc3cc(CN4CC[C@H](F)C4)cc(C)c32)C1 [Example 17-147]	< 1 nM	< 0.001 µM	< 0.001 µM	0.002 µM	79 nM
C=CC(=O)N1CCCC[C@@H](n2c(NC(=O)c3ccnc(C)c3)nc3cc(CN4CC[C@@H](F)C4)cc(C)c32)C1 [Example 17-148]	< 1 nM	0.002 µM	< 0.001 µM	0.002 µM	77 nM
C=CC(=O)N1CCCC[C@@H](n2c(NC(=O)c3ccnc(C)c3)nc3cc(CN4CC[C@H](OC)C4)cc(C)c32)C1 [Example 17-149]	< 1 nM	< 0.001 µM	< 0.001 µM	0.002 µM	76 nM
C=CC(=O)N1CCCC[C@@H](n2c(NC(=O)c3ccnc(C)c3)nc3cc(CN4CC[C@@H](OC)C4)cc(C)c32)C1 [Example 17-150]	< 1 nM	0.001 µM	< 0.001 µM	0.003 µM	129 nM

More lines, now with the values ahead:

IC50 (HCC827 (Del E746-A750))	IC50 [1]	IC50 (EGFR(L858R/T790M); [2])	IC50 (EGFR(L858R/T790M); [3])	IC50 (HEKn (EGFR WT))	SMILES
< 1 nM	0.001 µM	< 0.001 µM	0.002 µM	112 nM	C=CC(=O)N1CCCC[C@@H](n2c(NC(=O)c3ccnc(C)c3)nc3cc(CN4CC(F)C4)cc(C)c32)C1 [Example 17-152]
< 1 nM	0.001 µM	< 0.001 µM	0.002 µM	79 nM	C=CC(=O)N1CCCC[C@@H](n2c(NC(=O)c3ccnc(C)c3)nc3cc(CN4CC(OC)C4)cc(C)c32)C1 [Example 17-154]
